Values of other authors as cited in patent publication US8604084B2, “Method” (GlaxoSmithKline, LLC, priority 2008, dated 2013).

mean plasma half-life (adults): 2.4 h | plasma half-life, range (adults): 1.5 to 3.0 h | absolute oral bioavailability (independent of dose in the range of 5-20 mg/kg): about 80%
SMILES: CC(=O)Nc1ccc(O)cc1 [Paracetamol]
plasma protein binding (in vivo): not bound to plasma protein to any extent | volume of distribution (per body weight): about 0.9 litre/kilogram
